In PubChem BioAssay AID1963447 (Molecular Pharmacology Branch, DTP, NCI, 2024):

System: 885512-296-R-J2-PDC complex spheroid growth, % test/control
Assay: Anticancer human tumor 885512-296-R-J2-PDC patient-derived breast carcinoma cell line growth inhibition [Asc]
Details: for IC50: curve of first compound; for viability, T/C: stronger effect = lower value
Procedure, shortened: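 Complex spheroids combining tumor cells with HUVEC endothelial cells and human MSCs, at 37 degrees C, 5% CO2; agents tested alone or combined, half-log dilutions from at or near clinical Cmax, or 10 microM if Cmax unknown.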

[1] = second compound 0.1 µM, first compound 0.0316 µM
[2] = second compound 0.1 µM, first compound 0.1 µM
[3] = second compound 0.1 µM, first compound 0.316 µM
[4] = second compound 0.1 µM, first compound 1 µM
[5] = second compound 0.316 µM, first compound 0.0316 µM
[6] = second compound 0.316 µM, first compound 0.1 µM
[7] = second compound 0.316 µM, first compound 0.316 µM
[8] = second compound 0.316 µM, first compound 1 µM
[9] = second compound 1 µM, first compound 0.0316 µM
[10] = second compound 1 µM, first compound 0.1 µM
[11] = second compound 1 µM, first compound 0.316 µM
[12] = second compound 1 µM, first compound 1 µM
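Further: spheroids exposed to compounds for seven days.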
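Wherever viability, T/C is given: 100% = DMSO vehicle control wells.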

CCN1CCN(Cc2ccc(Nc3ncc(F)c(-c4cc(F)c5nc(C)n(C(C)C)c5c4)n3)nc2)CC1 + Cc1c(S(C)(=O)=O)c(-c2cc(F)cc(N3CCN(c4ccc(NS(=O)(=O)c5ccc(NC(CCN6CCC(C(=O)OCCCP(=O)(O)O)CC6)CSc6ccccc6)c(S(=O)(=O)C(F)(F)F)c5)cc4)CC3)c2)c(-c2ccc(Cl)cc2)n1C(C)C
IC50 (second compound 0.1 µM): > 1000 nM | IC50 (second compound 0.316 µM): > 1000 nM | IC50 (second compound 1 µM): > 1000 nM | IC50 (second compound 3.16 µM): > 1000 nM | IC50 (second compound 10 µM): > 1000 nM | viability, T/C (second compound 0.1 µM, first compound 0.00316 µM): 85.9% | viability, T/C (second compound 0.1 µM, first compound 0.01 µM): 104% | viability, T/C [1]: 89.3% | viability, T/C [2]: 71.7% | viability, T/C [3]: 65.5% | viability, T/C [4]: 61% | viability, T/C (second compound 0.316 µM, first compound 0.00316 µM): 102% | viability, T/C (second compound 0.316 µM, first compound 0.01 µM): 89.9% | viability, T/C [5]: 83.3% | viability, T/C [6]: 68.3% | viability, T/C [7]: 66.1% | viability, T/C [8]: 65% | viability, T/C (second compound 1 µM, first compound 0.00316 µM): 92.6% | viability, T/C (second compound 1 µM, first compound 0.01 µM): 91.5% | viability, T/C [9]: 76% | viability, T/C [10]: 76.3% | viability, T/C [11]: 67.8% | viability, T/C [12]: 69.1% | viability, T/C (second compound 3.16 µM, first compound 0.00316 µM): 90.8% | viability, T/C (second compound 3.16 µM, first compound 0.01 µM): 83.5% | viability, T/C (second compound 3.16 µM, first compound 0.0316 µM): 92.6% | viability, T/C (second compound 3.16 µM, first compound 0.1 µM): 89% | viability, T/C (second compound 3.16 µM, first compound 0.316 µM): 72.5% | viability, T/C (second compound 3.16 µM, first compound 1 µM): 61.9% | viability, T/C (second compound 10 µM, first compound 0.00316 µM): 118% | viability, T/C (second compound 10 µM, first compound 0.01 µM): 116% | viability, T/C (second compound 10 µM, first compound 0.0316 µM): 108% | viability, T/C (second compound 10 µM, first compound 0.1 µM): 126% | viability, T/C (second compound 10 µM, first compound 0.316 µM): 125% | viability, T/C (second compound 10 µM, first compound 1 µM): 113%

C=C(F)C(=O)N1CCN(c2nc(OCC3CCCN3C)nc3c2CCN(c2cccc4cccc(Cl)c24)C3)CC1CC#N (stereo not given) + CNC(C)C(=O)NC1CN(S(=O)(=O)c2cccc(S(=O)(=O)N3CCC4CCC(C(=O)NC(c5ccccc5)c5ccccc5)N4C(=O)C(NC(=O)C(C)NC)C3)c2)CCC2CCC(C(=O)NC(c3ccccc3)c3ccccc3)N2C1=O
IC50 (second compound 0.01 µM): 2660 nM | IC50 (second compound 0.0316 µM): 2290 nM | IC50 (second compound 0.1 µM): 2450 nM | IC50 (second compound 0.316 µM): 2240 nM | IC50 (second compound 1 µM): 2240 nM | viability, T/C (second compound 0.01 µM, first compound 0.0316 µM): 88.6% | viability, T/C (second compound 0.01 µM, first compound 0.1 µM): 91.8% | viability, T/C (second compound 0.01 µM, first compound 0.316 µM): 95.7% | viability, T/C (second compound 0.01 µM, first compound 1 µM): 84.8% | viability, T/C (second compound 0.01 µM, first compound 3.16 µM): 43.8% | viability, T/C (second compound 0.01 µM, first compound 10 µM): 0.11% | viability, T/C (second compound 0.0316 µM, first compound 0.0316 µM): 100% | viability, T/C (second compound 0.0316 µM, first compound 0.1 µM): 101% | viability, T/C (second compound 0.0316 µM, first compound 0.316 µM): 100% | viability, T/C (second compound 0.0316 µM, first compound 1 µM): 99.7% | viability, T/C (second compound 0.0316 µM, first compound 3.16 µM): 30.7% | viability, T/C (second compound 0.0316 µM, first compound 10 µM): 0.3% | viability, T/C [1]: 105% | viability, T/C [2]: 102% | viability, T/C [3]: 102% | viability, T/C [4]: 104% | viability, T/C (second compound 0.1 µM, first compound 3.16 µM): 34.9% | viability, T/C (second compound 0.1 µM, first compound 10 µM): 0.09% | viability, T/C [5]: 110% | viability, T/C [6]: 103% | viability, T/C [7]: 113% | viability, T/C [8]: 103% | viability, T/C (second compound 0.316 µM, first compound 3.16 µM): 27.5% | viability, T/C (second compound 0.316 µM, first compound 10 µM): 0.09% | viability, T/C [9]: 114% | viability, T/C [10]: 113% | viability, T/C [11]: 115% | viability, T/C [12]: 95.3% | viability, T/C (second compound 1 µM, first compound 3.16 µM): 30.5% | viability, T/C (second compound 1 µM, first compound 10 µM): 0.38%

NC(=O)C(=Cn1cnc(-c2cc(C(F)(F)F)cc(C(F)(F)F)c2)n1)c1cncnc1 + Cc1c(S(C)(=O)=O)c(-c2cc(F)cc(N3CCN(c4ccc(NS(=O)(=O)c5ccc(NC(CCN6CCC(C(=O)OCCCP(=O)(O)O)CC6)CSc6ccccc6)c(S(=O)(=O)C(F)(F)F)c5)cc4)CC3)c2)c(-c2ccc(Cl)cc2)n1C(C)C
IC50 (second compound 0.1 µM): 40.1 nM | IC50 (second compound 0.316 µM): 38.9 nM | IC50 (second compound 1 µM): 39.1 nM | IC50 (second compound 3.16 µM): 41.3 nM | IC50 (second compound 10 µM): 46.1 nM | viability, T/C (second compound 0.1 µM, first compound 0.000949 µM): 92.8% | viability, T/C (second compound 0.1 µM, first compound 0.003 µM): 74.5% | viability, T/C (second compound 0.1 µM, first compound 0.00949 µM): 81.9% | viability, T/C (second compound 0.1 µM, first compound 0.03 µM): 65.5% | viability, T/C (second compound 0.1 µM, first compound 0.0949 µM): 4.49% | viability, T/C (second compound 0.1 µM, first compound 0.3 µM): 0.26% | viability, T/C (second compound 0.316 µM, first compound 0.000949 µM): 75.8% | viability, T/C (second compound 0.316 µM, first compound 0.003 µM): 102% | viability, T/C (second compound 0.316 µM, first compound 0.00949 µM): 83% | viability, T/C (second compound 0.316 µM, first compound 0.03 µM): 63.3% | viability, T/C (second compound 0.316 µM, first compound 0.0949 µM): 4.42% | viability, T/C (second compound 0.316 µM, first compound 0.3 µM): 3.46% | viability, T/C (second compound 1 µM, first compound 0.000949 µM): 68.8% | viability, T/C (second compound 1 µM, first compound 0.003 µM): 89.2% | viability, T/C (second compound 1 µM, first compound 0.00949 µM): 102% | viability, T/C (second compound 1 µM, first compound 0.03 µM): 64.4% | viability, T/C (second compound 1 µM, first compound 0.0949 µM): 3.77% | viability, T/C (second compound 1 µM, first compound 0.3 µM): 0.23% | viability, T/C (second compound 3.16 µM, first compound 0.000949 µM): 92.9% | viability, T/C (second compound 3.16 µM, first compound 0.003 µM): 88.1% | viability, T/C (second compound 3.16 µM, first compound 0.00949 µM): 105% | viability, T/C (second compound 3.16 µM, first compound 0.03 µM): 67.9% | viability, T/C (second compound 3.16 µM, first compound 0.0949 µM): 4.78% | viability, T/C (second compound 3.16 µM, first compound 0.3 µM): 0.2% | viability, T/C (second compound 10 µM, first compound 0.000949 µM): 117% | viability, T/C (second compound 10 µM, first compound 0.003 µM): 105% | viability, T/C (second compound 10 µM, first compound 0.00949 µM): 89.7% | viability, T/C (second compound 10 µM, first compound 0.03 µM): 78% | viability, T/C (second compound 10 µM, first compound 0.0949 µM): 2.71% | viability, T/C (second compound 10 µM, first compound 0.3 µM): 0.25%
